# Source: publication PMC8847695 (Frontiers in Chemistry, 2022)
# Experiments:
# Format in all cases: binding
# AAK1 (121-471) = AAK1 (121-471) (Homo sapiens, UniProt Q2M2I8); assay: STD-NMR fragment screening, AAK1; conditions: for STD-NMR hit: 1 mM fragment, 20 µM protein, hit if peak in difference spectrum three times higher than local noise; for AAK1 (STD-NMR hit flag): 1 = hit, 0 = no hit
# Description: (§1) All fragments were stored at −20°C as solids in argon flushed glass bottles. For NMR screening, fragments were weighed and dissolved in DMSO-d6 to a stock concentration of 300 mM. Mother plates were prepared with a 100 mM concentration. From these plates, daughter plates were prepared with the fragments mixed in the plates to a concentration of 50 mM for each fragment. Daughter plates were opened a maximum of eight times. The plates were argon flushed and sealed with a HT121TS (HTA) and Foil Heat Seal (Biozym).
# (§2) For long time measurements, like the protein ^1H NMR spectrum, the buffer exchange was performed twice to reduce residual buffer peaks. All experiments were performed on a Bruker Avance III HDX 700 instrument, equipped with a 5 mm Prodigy TCI cryo-probehead. For every protein, a standard ^1H NMR experiment with 1 k scans and water suppression through presaturation was performed. […] The on-resonance frequency, which was determined from the ^1H NMR spectra of the protein, was between 0.5 and 0.6 ppm; 40 ppm was used as the off-resonance frequency. For an interleaved acquisition of the on- and off-resonance, a pseudo-2D scheme was applied. The saturation was done by Gaussian pulses with a length of 50 ms and 60 dB of attenuation, with an interpulse delay of 1 ms leading to an excitation bandwidth of about 42 Hz. The screening was done with 16 scans of on- and off-resonance scans each, with a 3 s saturation time. The samples contained final concentrations of 20 µM protein, 10% (^V/V) DMSO-d6, and 1 mM of each of the two fragments. A ^1H-NMR experiment was performed for each compound to act as a reference spectrum in the STD experiments. All NMR experiments were carried out at 25°C.
# (§3) Fifteen of these compounds contain the same halogen twice. No compound bears mixtures of different halogen atoms. Four proteins (AAK1, CAMK1G, IDO1, and DOT1L) were screened against this HEFLib using STD-NMR. A fragment was considered a hit if the peak intensity in the difference spectrum was three times higher than the local background noise. […] Chemical compatibility and peak complementarity were assured for these mixtures. Samples containing more than two fragments were avoided to minimize the possible target competition and to decrease the risk of fragment interactions. […] The ^1H reference NMR spectrum of the mixture is shown in red for comparison. […] As fragment mixtures can lead to competitive effects between their fragments, it is not advised to use the quantification of peak mixtures for hit ranking.
# DOT1L (1-416) = target: T1, DOT1L (1-416) (Homo sapiens, UniProt Q8TEK3); assay: STD-NMR fragment screening, DOT1L; conditions: for DOT1L (STD-NMR hit flag): 1 = hit, 0 = no hit
# T1 construct: made in house; host or cells: E. coli BL21 (DE3) pLysS
# Description: as §1, §2, §3
# CAMK1G (1-320) = target: T2, CAMK1G (1-320) (Homo sapiens, UniProt Q96NX5); assay: STD-NMR fragment screening, CAMK1G; conditions: for CAMK1G (STD-NMR hit flag): 1 = hit, 0 = no hit
# T2 construct: made in house; host or cells: E. coli BL21 (DE3) pLysS
# Description: as §1, §2, §3
# IDO1 (1-435) = target: T3, IDO1 (1-435) (Homo sapiens, UniProt P14902); assay: STD-NMR fragment screening, IDO1; conditions: for IDO1 (STD-NMR hit flag): 1 = hit, 0 = no hit
# T3 construct: His-tag of pET15b with TEV site (thrombin site replaced) (cleaved yes); made in house; host or cells: E. coli Rosetta 2 (DE3) pLysS
# Description: as §1, §2, §3
# [1] = 1 mM fragment, 20 µM protein, hit if peak in difference spectrum three times higher than local noise
# T3 sequence (P14902 whole entry, the tested form may be a part): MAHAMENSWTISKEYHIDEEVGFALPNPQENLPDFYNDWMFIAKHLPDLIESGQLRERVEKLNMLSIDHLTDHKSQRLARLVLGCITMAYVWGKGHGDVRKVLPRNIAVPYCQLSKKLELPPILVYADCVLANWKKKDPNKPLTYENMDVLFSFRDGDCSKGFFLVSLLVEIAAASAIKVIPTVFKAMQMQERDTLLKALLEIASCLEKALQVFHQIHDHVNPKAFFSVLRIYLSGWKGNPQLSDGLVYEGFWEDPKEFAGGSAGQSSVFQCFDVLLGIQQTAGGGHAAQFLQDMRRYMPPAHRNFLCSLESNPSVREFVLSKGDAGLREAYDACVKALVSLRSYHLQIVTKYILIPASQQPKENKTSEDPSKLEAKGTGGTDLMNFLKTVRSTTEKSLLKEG
# Chain of AAK1 (121-471) (Q2M2I8 46-315 limits assumed): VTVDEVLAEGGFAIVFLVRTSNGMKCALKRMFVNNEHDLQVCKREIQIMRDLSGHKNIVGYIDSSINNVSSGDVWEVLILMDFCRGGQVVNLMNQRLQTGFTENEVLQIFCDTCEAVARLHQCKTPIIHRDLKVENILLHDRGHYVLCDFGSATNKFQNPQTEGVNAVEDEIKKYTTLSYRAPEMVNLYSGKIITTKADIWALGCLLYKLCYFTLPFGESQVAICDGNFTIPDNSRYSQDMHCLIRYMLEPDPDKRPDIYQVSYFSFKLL
# T2 sequence (Q96NX5 1-320): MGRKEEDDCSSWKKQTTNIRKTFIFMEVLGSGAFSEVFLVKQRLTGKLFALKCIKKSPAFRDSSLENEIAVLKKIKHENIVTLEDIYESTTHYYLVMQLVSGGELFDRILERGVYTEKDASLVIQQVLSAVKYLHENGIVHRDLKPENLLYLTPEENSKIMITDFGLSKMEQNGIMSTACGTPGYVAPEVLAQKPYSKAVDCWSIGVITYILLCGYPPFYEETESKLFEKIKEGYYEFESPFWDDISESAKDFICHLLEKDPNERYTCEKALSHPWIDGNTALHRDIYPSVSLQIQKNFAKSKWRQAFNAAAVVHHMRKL
# T1 sequence (Q8TEK3 1-416): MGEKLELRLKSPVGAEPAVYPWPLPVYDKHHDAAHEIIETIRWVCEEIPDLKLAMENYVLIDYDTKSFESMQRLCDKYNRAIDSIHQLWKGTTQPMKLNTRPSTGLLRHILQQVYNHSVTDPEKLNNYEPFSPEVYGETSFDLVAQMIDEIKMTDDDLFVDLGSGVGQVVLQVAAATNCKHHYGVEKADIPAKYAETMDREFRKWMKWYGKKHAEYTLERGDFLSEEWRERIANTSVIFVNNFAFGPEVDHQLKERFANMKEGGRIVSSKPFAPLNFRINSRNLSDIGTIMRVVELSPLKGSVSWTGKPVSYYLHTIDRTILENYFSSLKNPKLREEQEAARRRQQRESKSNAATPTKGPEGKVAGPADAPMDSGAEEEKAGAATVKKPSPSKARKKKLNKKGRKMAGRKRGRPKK
Structure (SMILES),STD-NMR hit (AAK1 (121-471)),STD-NMR hit (DOT1L (1-416); [1]),STD-NMR hit (CAMK1G (1-320); [1]),STD-NMR hit (IDO1 (1-435); [1]),AAK1 (STD-NMR hit flag) (AAK1 (121-471)),DOT1L (STD-NMR hit flag) (DOT1L (1-416)),CAMK1G (STD-NMR hit flag) (CAMK1G (1-320)),IDO1 (STD-NMR hit flag) (IDO1 (1-435))
Cn1c(Cl)c(C#N)c(=O)n(C)c1=O [Fragment 1234],pan-target hit,pan-target hit,pan-target hit,pan-target hit,–,–,–,–
Oc1ccc(Cl)cc1 [Fragment 4485],none of the signals of fragment 4485 (Signal 4 and 5) are distinguishable from the baseline noise,–,–,–,–,–,–,–
NC(CCO)c1ccc(Cl)cc1Cl (stereo not drawn) [Fragment B02289594],–,–,–,–,0,0,0,0
Clc1ncnc2cc[nH]c12 [Fragment B02289595],–,–,–,–,1,0,1,0
Cc1noc(C)c1Br [Fragment B02289596],–,–,–,–,0,0,1,0
O=C(O)c1cccc(Cl)n1 [Fragment B02289597],–,–,–,–,0,0,0,0
OB(O)c1ccc(Cl)nc1F [Fragment B02289599],–,–,–,–,0,0,0,0
Nc1ncccc1I [Fragment B02289600],–,–,–,–,0,0,1,0
O=[N+]([O-])c1cnc(Br)[nH]1 [Fragment B02289601],–,–,–,–,1,0,0,1
O=C(O)c1ccc(Cl)cn1 [Fragment B02289602],–,–,–,–,0,0,0,0
Nc1cccc(Br)c1O [Fragment B02289603],–,–,–,–,0,0,0,0
O=C(O)c1cncc(Cl)c1 [Fragment B02289604],–,–,–,–,1,0,0,0
Nc1ccc2[nH]nc(Br)c2c1 [Fragment B02289605],–,–,–,–,0,0,1,0
OCc1ccc(Cl)nc1 [Fragment B02289606],–,–,–,–,0,0,0,0
Nc1cnccc1I [Fragment B02289607],–,–,–,–,1,0,0,0
COc1nc(N)ncc1I [Fragment B02289608],–,–,–,–,1,0,1,0
NCc1cc(Br)no1 [Fragment B02289609],–,–,–,–,0,0,0,0

Structure (SMILES),STD-NMR hit (AAK1 (121-471)),STD-NMR hit (DOT1L (1-416); [1]),STD-NMR hit (CAMK1G (1-320); [1]),STD-NMR hit (IDO1 (1-435); [1]),AAK1 (STD-NMR hit flag) (AAK1 (121-471)),DOT1L (STD-NMR hit flag) (DOT1L (1-416)),CAMK1G (STD-NMR hit flag) (CAMK1G (1-320)),IDO1 (STD-NMR hit flag) (IDO1 (1-435))
Brc1cnn2cccnc12 [Fragment B02289610],–,–,–,–,1,0,1,0
O=C(O)c1cncc(Cl)n1 [Fragment B02289611],–,–,–,–,0,0,0,0
Nc1ncc(Br)cc1C(=O)O [Fragment B02289612],–,–,–,–,0,0,0,1
CCOC(=O)c1coc(Cl)n1 [Fragment B02289613],–,–,–,–,0,0,0,0
O=C(O)c1ncccc1Br [Fragment B02289614],–,–,–,–,0,0,0,0
O=C(O)c1ccc(Cl)c(O)c1 [Fragment B02289615],–,–,–,–,0,0,0,0
Cc1ccc(N)c(Cl)n1 [Fragment B02289616],–,–,–,–,1,0,0,0
Brc1cnc2cnccn12 [Fragment B02289617],–,–,–,–,0,0,1,0
O=c1[nH]cnc(O)c1Br [Fragment B02289618],–,–,–,–,0,0,0,0
Cc1ncccc1Br [Fragment B02289619],–,–,–,–,0,0,1,0
Cn1ccc(Br)n1 [Fragment B02289620],–,–,–,–,0,0,0,1
Nc1ncnc(Cl)c1Cl [Fragment B02289621],–,–,–,–,1,0,1,0
Brc1cncnc1 [Fragment B02289809],–,–,–,–,0,0,0,0
Brc1cnc(N2CCCNCC2)nc1 [Fragment B02290087],–,–,–,–,0,0,1,0
COc1ccc(CN)c(Cl)c1 [Fragment B02290088],–,–,–,–,0,0,0,0
CN(N)c1ncc(C(F)(F)F)cc1Cl [Fragment B02290089],–,–,–,–,0,0,0,0
